In patent publication US10426758B2, “Sibiriline derivatives for use for preventing and/or treating disorders associated with cellular necroptosis” (Institut National de la Sante et de la Recherche Medicale …, priority 2015, dated 2019):
Each block holds one molecule with its values, some of them ahead of it.

How the values were obtained:
Jurkat Fadd−/− [1] = assay: Necroptosis induced by TNF in Jurkat Fadd−/−, MTS Cell Proliferation assay; format: cell-based; details: Homo sapiens
Method: (§1) Besides, the IC50 of compound 3, compound 6 and necrostatin-1 (Nec-1) were determined in mouse or human cellular models of necroptosis induced by FasL+zVAD-fmk (a pan-caspase inhibitor) or TNF, and by using two cytotoxic assays (MTS Cell Proliferation assay or intracellular ATP level). As shown in the table below, compound 3 and compound 6 inhibit TNF-α or FasL-induced necroptosis with IC50 almost similar to those obtained with Nec-1.

L929sAhFas [2] = assay: Necroptosis induced by FasL + zVAD-fmk in L929sAhFas, intracellular ATP level; format: cell-based; details: Mus musculus
Method: as §1

Jurkat Fadd−/− [3] = assay: Necroptosis induced by TNF in Jurkat Fadd−/−, intracellular ATP level; format: cell-based; details: Homo sapiens
Method: as §1

L929sAhFas [4] = assay: Necroptosis induced by FasL + zVAD-fmk in L929sAhFas, MTS Cell Proliferation assay; format: cell-based; details: Mus musculus
Method: as §1

[5] = system: murine model of acute hepatitis (concanavalin A-induced hepatitis); assay: Concanavalin A-induced acute hepatitis in mice; format: in vivo, C57Bl/6 WT mice; details: Nec-1s 6.25 mg/kg intraperitoneal 1 hour before 12 mg/kg Con A for 10 h
Method: We use a murine model of acute hepatitis (concanavalin A-induced hepatitis) that depends on necroptosis induction (Jouan-Lanhouet et al. Semin. Cell. Dev. Biol. 2014, 35, 2-13). Sib is diluted in 50% PBS/50% DMSO.
C57Bl/6 WT mice were pre-treated or not with 3, 6 or 9 mg/kg Sib or 6.25 mg/kg Nec-1s injected by intraperitoneal route 1 hour before treatment or not with 12 mg/kg Con A for 10 h (intravenous route) (50% PBS/50% DMSO, n=5; 50% PBS/50% DMSO+Con A, n=5; 3 mg/kg Sib+Con A, n=5; 6 mg/kg Sib+Con A, n=5; 9 mg/kg Sib+Con A, n=5; 6.25 mg/kg Nec-1s+Con A, n=5).

[6] = system: cytochrome P450 CYP1A enzymes in HepG2 cells; assay: Ethoxyresorufin O-deethylase (EROD) activity in HepG2 cells; format: in vitro ADME, human; details: 10 μM, 24 hours
Method: EROD activity corresponds to the O-deethylation of ethoxyresorufin and is mainly supported by cytochrome P450 CYP1A enzymes in HepG2 cells. Induction of CYP1A is mediated through the binding of xenobiotics to a cytosolic aryl hydrocarbon receptor AhR.
Human liver cancer cell lines HepG2 were treated with 10 μM of Sib, Nec-1 or Nec-1s for 24 hours. After treatment, HepG2 cells were incubated in PBS containing 5 mM ethoxyresorufin and kinetic reading was performed at 37° C. with spectrofluorometer (SpectraMax Gemini SX) over a 15 min period.

[7] = system: Jurkat FADD-deficient I 2.1 cell line; assay: Cell-based screening: TNF-α-induced necroptosis in Jurkat FADD-deficient cells, MTS viability assay; parameters: species or system human; details: for EC50: Homo sapiens, Jurkat, necroptosis induced by 10 ng/ml TNF-α, 24 hours, MTS viability; for inhibition of necroptosis induced by TNF-α (figure legend): human T lymphocyte, Jurkat FADD deficient cell line
Text: TNF-α can induce necroptosis in Jurkat cells (human T lymphocytes) when FADD is deleted. This model was used to screen various libraries of chemical compounds for characterization of new inhibitors of cellular necroptosis. Details on this cell-based assay can be found in (Miao and Degterev, Methods Mol. Biol. 2009, 559, 79-93). The Jurkat FADD-deficient I 2.1 cell line used was purchased from ATCC and was maintained in RPMI 1640 medium (Gibco) containing Glutamax and 15% fetal calf serum (Life Technology). Necroptosis was induced by addition of 10 ng/ml of human recombinant TNF-α (Life Technology). Necrostatin-1 (Nec-1, Enzo Life Sciences) was used as model necroptosis inhibitor. Cells were maintained in 75 cm^2 flask and passed every 2 or 3 days. Chemical collections analysed were formatted in 96-well plates with 80 molecules per plates at 10 mM in 100% DMSO. For each collection plate, 2 cell plates were seeded (one necroptosis-induced with TNF-α and the other without TNF-α). Cells were seeded at 20000 cells/well, in 40 μl of medium, in a 96-well clear, flat bottom plate (CytoOne, Starlab) before treatment. Then, 40 μl of medium with or without TNF-α at 25 ng/ml were added to all wells in the corresponding plate. Immediately after TNF-α addition, 20 μl of diluted compound at 50 μM were added to the plates. Final concentration of each chemical compound was 10 μM at 0.1% DMSO. Four positives (Nec-1 at 10 μM final) and four negative (DMSO) controls were used in each plate to validate the assay. Cells were incubated at 37° C., 5% CO2 for 24 hours before performing MTS viability assay, described hereafter. Compounds were diluted before to treat cells. Liquid handling was performed using the Nimbus Microlab liquid handler (Hamilton Robotics) under microbiological safety workbench. The 10 mM compounds were diluted at 50 μM directly in cell medium.

[8] = target: T1, Human RIPK1 full length GST-tagged (Homo sapiens, UniProt Q13546); assay: RIPK1 autophosphorylation assay; format: biochemical; details: radioactively labeled RIPK1, [γ-32P] ATP, 30 minutes at 30° C.
T1 construct: Human RIPK1 full length GST-tagged; made in house; host or cells: Sf9 insect cells (Bac-to-Bac baculovirus system)
T1 sequence (Q13546 1-671): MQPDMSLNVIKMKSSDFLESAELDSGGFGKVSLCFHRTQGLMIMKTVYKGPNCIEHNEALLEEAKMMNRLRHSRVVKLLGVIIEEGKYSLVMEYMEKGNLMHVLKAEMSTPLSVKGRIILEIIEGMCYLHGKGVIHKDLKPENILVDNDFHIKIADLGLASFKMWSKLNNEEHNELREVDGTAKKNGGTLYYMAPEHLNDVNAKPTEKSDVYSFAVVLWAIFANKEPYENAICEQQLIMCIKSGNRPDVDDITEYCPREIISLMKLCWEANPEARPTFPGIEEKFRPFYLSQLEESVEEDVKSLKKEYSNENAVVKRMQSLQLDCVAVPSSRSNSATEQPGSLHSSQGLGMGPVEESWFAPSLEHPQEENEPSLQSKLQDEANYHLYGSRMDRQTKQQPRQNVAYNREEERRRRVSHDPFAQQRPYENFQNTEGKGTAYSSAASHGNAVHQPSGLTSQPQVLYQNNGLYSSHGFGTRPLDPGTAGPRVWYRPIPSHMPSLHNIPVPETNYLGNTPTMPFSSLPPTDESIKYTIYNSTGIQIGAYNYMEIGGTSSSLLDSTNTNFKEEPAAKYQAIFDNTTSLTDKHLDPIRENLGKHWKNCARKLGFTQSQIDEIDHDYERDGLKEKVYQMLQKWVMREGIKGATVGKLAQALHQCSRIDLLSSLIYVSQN
Method: Human RIPK1 full length GST-tagged was baculovirally expressed in Sf9 cells according to manufacturer's instructions (Bac-to-Bac expression system, Invitrogen) and purified using gluthation-sepharose beads (GE Healthcare). The elution was made in 50 mM Tris-HCl, pH 8.0 buffer supplemented with 30 mM reduced gluthatione (Sigma). The protocol used to detect the enzymatic activity is adapted from Miao and Degterev (Methods Mol. Biol. 2009, 559, 79-93). Kinase reaction was initiated mixing 5 μl of eluted RIPK1, 5 μl of 3× kinase reaction buffer (5 mM MOPS pH 7.2, 2.5 mM β-glycerophosphate, 4 mM MgCl2, 2.5 mM MnCl2, 1 mM EGTA, 0.4 mM EDTA, 50 μg/ml BSA, 0.05 mM DTT), 2 μl H2O and 3 μl of the tested molecule. The mixture was kept on ice for 10 minutes. During the incubation, the ATP solution was prepared by mixing 5 μl of 3× kinase reaction buffer, 4 μl H2O, 6 μl cold ATP at 150 μM and 2 μCi of [γ-^32P] ATP. Add the ATP solution and the tested inhibitor to the kinase and incubate for 30 minutes at 30° C. To stop the enzymatic reaction, 5 μl of loading buffer were added and solution was heated for 3 minutes at 95° C. 25 μl of each reaction were loaded per well in pre-cast NuPage 12% Bis-Tris gel (Life Technology). Autophosphorylated RIPK1 band was visualized on radiographic film after 6 h exposition at −80° C.

Structure (SMILES): CN1C(=O)C(Cc2c[nH]c3ccccc23)NC1=S (centres unmarked) [Nec-1, necrostatin-1, reference compound]
- IC50 (Jurkat Fadd−/− [1]): 1.3 µM
- IC50 (L929sAhFas [2]): 10 µM
- IC50 (Jurkat Fadd−/− [3]): 1.3 µM
- IC50 (L929sAhFas [4]): 10 µM

- induction of EROD activity [6]: do not induce EROD activity
Structure (SMILES): CN1C(=O)NC(Cc2c[nH]c3c(Cl)cccc23)C1=O (centres unmarked) [Nec-1s, reference compound]
- AST and ALT levels and protection from Con A-induced hepatitis [5]: has a tendency to decrease AST and ALT levels and to protect mice from Con A-induced hepatitis

Structure (SMILES): COc1ccc(-c2cc3cccnc3[nH]2)cc1 [compound 1, 2-(4-methoxyphenyl)-1H-pyrrolo[2,3-b]pyridine]
- EC50 [7]: 0.4 µM
- inhibition of necroptosis induced by TNF-α (figure legend) [7]: dose-dependent inhibition

Structure (SMILES): CCOc1ccc(-c2cc3cccnc3[nH]2)cc1 [compound 3, 2-(4-ethoxyphenyl)-1H-pyrrolo[2,3-b]pyridine]
- IC50 (Jurkat Fadd−/− [1]): 2.7 µM
- IC50 (L929sAhFas [2]): 2.5 µM
- inhibition of RIPK1 autophosphorylation [8]: dose-dependent inhibition
- IC50 (Jurkat Fadd−/− [3]): 1.3 µM
- EC50 [7]: 0.7 µM
- inhibition of necroptosis induced by TNF-α (figure legend) [7]: dose-dependent inhibition

Structure (SMILES): CC(C)Oc1ccc(-c2cc3cccnc3[nH]2)cc1 [compound 4, 2-(4-isopropoxyphenyl)-1H-pyrrolo[2,3-b)pyridine]
- EC50 [7]: 0.9 µM
- inhibition of necroptosis induced by TNF-α (figure legend) [7]: dose-dependent inhibition

Structure (SMILES): c1cnc2[nH]c(-c3ccc4c(c3)OCCO4)cc2c1 [compound 5, 2-(1,4-benzodioxanyl)-1H-pyrrolo[2,3-b]pyridine]
- EC50 [7]: 1.4 µM

Structure (SMILES): c1cnc2[nH]c(-c3ccc4c(c3)OCO4)cc2c1 [compound 6]
- IC50 (Jurkat Fadd−/− [1]): 7 µM
- IC50 (Jurkat Fadd−/− [3]): 4 µM
- IC50 (L929sAhFas [4]): 10 µM
- EC50 [7]: 1.8 µM

- inhibition of RIPK1 autophosphorylation [8]: dose-dependent inhibition
Structure (SMILES): CCOc1ccc(-c2cc3c(Cl)ccnc3[nH]2)cc1 [compound 7, 4-chloro-2-(4-ethoxyphenyl)-1H-pyrrolo[2,3-b]pyridine]
- EC50 [7]: 2 µM
- inhibition of necroptosis induced by TNF-α (figure legend) [7]: dose-dependent inhibition

Structure (SMILES): CCOc1ccc(-c2cc3cc(-c4ccc(OC)c(OC)c4)cnc3[nH]2)cc1 [compound 8, 5-(3,4-dimethoxyphenyl)-2-(4-ethoxyphenyl)-1H-pyrrolo[2,3-b]pyridine]
- EC50 [7]: 1.5 µM
- inhibition of necroptosis induced by TNF-α (figure legend) [7]: dose-dependent inhibition

Structure (SMILES): c1cnc2[nH]c(-c3ccc(OC4CCCC4)cc3)cc2c1 [compound 9, 2-(4-(cyclopentyloxy)phenyl)-1H-pyrrolo[2,3-b]pyridine]
- EC50 [7]: 3 µM
- inhibition of necroptosis induced by TNF-α (figure legend) [7]: dose-dependent inhibition

Structure (SMILES): CCOc1ccc(-c2cc3cc(Br)cnc3[nH]2)cc1 [compound 10, 5-bromo-2-(4-ethoxyphenyl)-1H-pyrrolo[2,3-b]pyridine]
- inhibition of necroptosis induced by TNF-α (figure legend) [7]: slight dose-dependent inhibition
